Measurements: ChEMBL document CHEMBL1201862, “PubChem BioAssay data set” (2004)
The source made the active and inactive calls.

Columns and labels:
Type in all cases: functional
[1] = target: Glycogen synthase kinase-3 beta (Homo sapiens, UniProt P49841); experiment: GSK3beta kinase inhibitors, dose response, biochemical, microfluidics, dry powder samples, set 2 (AID 623989)
[2] = target: Glycogen synthase kinase-3 alpha (Homo sapiens, UniProt P49840); experiment: human GSK3 alpha kinase inhibition, dose response, selectivity assay for GSK3beta inhibitor project, biochemical, microfluidics, dry powder samples, set 2 (AID 623978)
[3] = target: Protein-tyrosine kinase 2-beta (Homo sapiens, UniProt Q14289)
[4] = target: cGMP-dependent protein kinase 1 (Homo sapiens, UniProt Q13976);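 note: value from a kinome panel screen with PRKG1 as the panel member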
[5] = target: Protein kinase C delta type (Homo sapiens, UniProt Q05655)
[6] = target: Receptor tyrosine-protein kinase erbB-4 (Homo sapiens, UniProt Q15303);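 note: ERBB4 member of a kinome-wide kinase profiling panel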
[7] = target: Fibroblast growth factor receptor 3 (Homo sapiens, UniProt P22607)
[8] = target: Casein kinase I isoform alpha (Homo sapiens, UniProt P48729)
[9] = target: Protein-tyrosine kinase 6 (Homo sapiens, UniProt Q13882)
[10] = target: Proto-oncogene tyrosine-protein kinase ROS (Homo sapiens, UniProt P08922);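 note: ROS1 tested as one member of a kinome-wide kinase panel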
[11] = target: Tyrosine-protein kinase ABL1 (Homo sapiens, UniProt P00519)
[12] = target: Homeodomain-interacting protein kinase 2 (Homo sapiens, UniProt Q9H2X6);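 note: measured within a kinome-wide kinase profiling panel, HIPK2 being one panel member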
[13] = target: Serine/threonine-protein kinase pim-1 (Homo sapiens, UniProt P11309)
[14] = target: Protein kinase C iota type (Homo sapiens, UniProt P41743);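 note: measured within a kinome-wide kinase panel, PRKCI as panel member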
[15] = target: Ribosomal protein S6 kinase beta-1 (Homo sapiens, UniProt P23443);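 note: measured as one member of a kinome-wide profiling panel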
[16] = target: Mitogen-activated protein kinase 8 (Homo sapiens, UniProt P45983);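 note: value comes from one member of a kinome-wide kinase profiling panel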
[17] = target: Mitogen-activated protein kinase 12 (Homo sapiens, UniProt P53778);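 note: measured as one member of a kinome-wide kinase profiling panel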
[18] = target: Calcium/calmodulin-dependent protein kinase type II subunit gamma (Homo sapiens, UniProt Q13555)
[19] = target: Serine/threonine-protein kinase Chk2 (Homo sapiens, UniProt O96017);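 note: CHEK2 entry within a kinome-wide screening panel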
[20] = A Cell Based Secondary Assay to Explore Cytotoxicity in THP-1 Cells of Compounds that Modulate Mycobacterium tuberculosis in Media Containing Glycerol versus Media without Glycerol (2).
[21] = HepG2 cell cytotoxicity, dose response, cytotoxicity control, set 3 (AID 504853); conditions: Mycobacterium tuberculosis
[22] = Vero cell cytotoxicity, dose response, cytotoxicity control for M. tuberculosis growth inhibitor project, Vero cells, purified and synthesized compounds, set 5 (AID 504909); conditions: Mycobacterium tuberculosis
[23] = Vero cell cytotoxicity, cytotoxicity control for M. tuberculosis inhibitor project, purified and synthesized samples, set 3 (AID 504684)
[24] = THP-1 cell cytotoxicity, cytotoxicity control, set 4 (AID 504911); conditions: Mycobacterium tuberculosis
[25] = Vero cell cytotoxicity, dose response, cytotoxicity control for M. tuberculosis growth inhibitor project, Vero cells, purified and synthesized compounds, set 4 (AID 504854); conditions: Mycobacterium tuberculosis
[26] = THP-1 cell cytotoxicity, dose response, cytotoxicity control, set 3 (AID 504852); conditions: Mycobacterium tuberculosis
[27] = A Cell Based Secondary Assay to Explore Cytotoxicity in HepG2 Cells of Compounds that Modulate Mycobacterium tuberculosis in Media Containing Glycerol versus Media without Glycerol (2).

Chain of Glycogen synthase kinase-3 alpha (P49840 whole entry): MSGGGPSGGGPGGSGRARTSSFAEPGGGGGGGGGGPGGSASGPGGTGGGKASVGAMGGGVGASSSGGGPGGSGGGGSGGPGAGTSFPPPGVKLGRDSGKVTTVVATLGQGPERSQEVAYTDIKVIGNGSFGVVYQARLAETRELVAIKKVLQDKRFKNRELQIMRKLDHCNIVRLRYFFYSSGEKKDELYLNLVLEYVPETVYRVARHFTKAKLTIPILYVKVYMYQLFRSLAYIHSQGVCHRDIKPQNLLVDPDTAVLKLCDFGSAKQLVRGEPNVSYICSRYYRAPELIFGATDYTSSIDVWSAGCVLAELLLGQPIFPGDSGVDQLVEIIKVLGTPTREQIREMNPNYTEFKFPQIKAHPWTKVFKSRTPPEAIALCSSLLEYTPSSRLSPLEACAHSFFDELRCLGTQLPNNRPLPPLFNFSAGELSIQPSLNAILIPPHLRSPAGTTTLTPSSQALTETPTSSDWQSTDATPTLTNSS
Chain of Protein kinase C iota type (P41743 whole entry): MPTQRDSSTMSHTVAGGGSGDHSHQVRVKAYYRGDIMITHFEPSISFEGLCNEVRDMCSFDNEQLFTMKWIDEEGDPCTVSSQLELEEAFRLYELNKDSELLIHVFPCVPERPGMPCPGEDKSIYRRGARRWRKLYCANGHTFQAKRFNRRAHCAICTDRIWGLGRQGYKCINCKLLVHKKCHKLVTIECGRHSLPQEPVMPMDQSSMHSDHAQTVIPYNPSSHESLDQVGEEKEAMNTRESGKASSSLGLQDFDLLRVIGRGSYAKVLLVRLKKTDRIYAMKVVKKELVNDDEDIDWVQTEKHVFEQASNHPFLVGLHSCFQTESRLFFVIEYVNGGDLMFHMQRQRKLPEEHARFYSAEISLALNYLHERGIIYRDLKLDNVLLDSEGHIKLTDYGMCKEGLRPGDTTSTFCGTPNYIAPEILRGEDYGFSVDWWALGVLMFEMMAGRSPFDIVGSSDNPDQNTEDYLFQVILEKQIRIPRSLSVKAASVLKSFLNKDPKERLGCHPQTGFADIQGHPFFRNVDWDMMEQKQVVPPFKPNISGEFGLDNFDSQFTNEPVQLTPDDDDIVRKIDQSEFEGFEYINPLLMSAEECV
Chain of Serine/threonine-protein kinase pim-1 (P11309 whole entry): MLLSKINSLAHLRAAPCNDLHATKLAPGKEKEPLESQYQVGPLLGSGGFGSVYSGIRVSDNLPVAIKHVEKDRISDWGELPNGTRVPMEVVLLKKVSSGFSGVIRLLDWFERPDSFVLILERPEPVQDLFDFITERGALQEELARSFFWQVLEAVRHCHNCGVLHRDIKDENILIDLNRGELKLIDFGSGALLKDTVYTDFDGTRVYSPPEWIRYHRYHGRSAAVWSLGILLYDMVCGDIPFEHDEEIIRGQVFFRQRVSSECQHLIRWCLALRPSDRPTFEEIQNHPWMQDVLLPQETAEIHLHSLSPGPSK
Chain of cGMP-dependent protein kinase 1 (Q13976 whole entry): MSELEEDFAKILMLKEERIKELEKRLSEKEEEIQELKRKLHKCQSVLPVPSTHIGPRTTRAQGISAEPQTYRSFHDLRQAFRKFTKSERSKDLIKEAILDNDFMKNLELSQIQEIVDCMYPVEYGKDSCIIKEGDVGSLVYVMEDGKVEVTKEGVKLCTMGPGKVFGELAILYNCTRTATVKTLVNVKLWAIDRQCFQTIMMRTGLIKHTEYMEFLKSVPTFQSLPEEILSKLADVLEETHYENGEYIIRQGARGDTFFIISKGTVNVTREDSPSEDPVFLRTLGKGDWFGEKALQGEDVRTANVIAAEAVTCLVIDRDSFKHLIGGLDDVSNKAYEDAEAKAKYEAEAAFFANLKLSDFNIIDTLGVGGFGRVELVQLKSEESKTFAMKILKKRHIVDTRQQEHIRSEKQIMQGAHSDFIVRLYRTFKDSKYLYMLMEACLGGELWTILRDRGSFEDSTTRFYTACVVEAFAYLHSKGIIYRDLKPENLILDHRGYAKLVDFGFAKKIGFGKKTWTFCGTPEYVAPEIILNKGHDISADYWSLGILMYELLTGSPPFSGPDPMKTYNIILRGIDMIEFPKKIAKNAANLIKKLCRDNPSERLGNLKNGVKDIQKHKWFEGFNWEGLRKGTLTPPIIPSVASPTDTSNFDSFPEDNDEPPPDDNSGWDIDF
Chain of Calcium/calmodulin-dependent protein kinase type II subunit gamma (Q13555 whole entry): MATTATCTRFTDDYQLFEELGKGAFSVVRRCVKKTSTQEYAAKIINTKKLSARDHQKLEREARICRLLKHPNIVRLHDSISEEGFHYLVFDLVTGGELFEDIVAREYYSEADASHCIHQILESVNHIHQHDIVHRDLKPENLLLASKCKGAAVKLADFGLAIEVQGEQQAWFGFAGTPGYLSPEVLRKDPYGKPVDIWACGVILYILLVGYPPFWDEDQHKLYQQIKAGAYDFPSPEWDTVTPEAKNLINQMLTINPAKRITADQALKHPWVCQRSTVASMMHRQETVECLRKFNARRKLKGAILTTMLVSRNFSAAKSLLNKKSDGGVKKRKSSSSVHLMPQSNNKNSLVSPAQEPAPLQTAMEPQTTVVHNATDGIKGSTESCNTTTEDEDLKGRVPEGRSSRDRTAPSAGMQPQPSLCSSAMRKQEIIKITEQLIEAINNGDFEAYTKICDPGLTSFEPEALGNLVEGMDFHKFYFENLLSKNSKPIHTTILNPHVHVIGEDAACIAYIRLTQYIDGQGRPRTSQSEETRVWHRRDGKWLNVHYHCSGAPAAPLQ
Chain of Homeodomain-interacting protein kinase 2 (Q9H2X6 whole entry): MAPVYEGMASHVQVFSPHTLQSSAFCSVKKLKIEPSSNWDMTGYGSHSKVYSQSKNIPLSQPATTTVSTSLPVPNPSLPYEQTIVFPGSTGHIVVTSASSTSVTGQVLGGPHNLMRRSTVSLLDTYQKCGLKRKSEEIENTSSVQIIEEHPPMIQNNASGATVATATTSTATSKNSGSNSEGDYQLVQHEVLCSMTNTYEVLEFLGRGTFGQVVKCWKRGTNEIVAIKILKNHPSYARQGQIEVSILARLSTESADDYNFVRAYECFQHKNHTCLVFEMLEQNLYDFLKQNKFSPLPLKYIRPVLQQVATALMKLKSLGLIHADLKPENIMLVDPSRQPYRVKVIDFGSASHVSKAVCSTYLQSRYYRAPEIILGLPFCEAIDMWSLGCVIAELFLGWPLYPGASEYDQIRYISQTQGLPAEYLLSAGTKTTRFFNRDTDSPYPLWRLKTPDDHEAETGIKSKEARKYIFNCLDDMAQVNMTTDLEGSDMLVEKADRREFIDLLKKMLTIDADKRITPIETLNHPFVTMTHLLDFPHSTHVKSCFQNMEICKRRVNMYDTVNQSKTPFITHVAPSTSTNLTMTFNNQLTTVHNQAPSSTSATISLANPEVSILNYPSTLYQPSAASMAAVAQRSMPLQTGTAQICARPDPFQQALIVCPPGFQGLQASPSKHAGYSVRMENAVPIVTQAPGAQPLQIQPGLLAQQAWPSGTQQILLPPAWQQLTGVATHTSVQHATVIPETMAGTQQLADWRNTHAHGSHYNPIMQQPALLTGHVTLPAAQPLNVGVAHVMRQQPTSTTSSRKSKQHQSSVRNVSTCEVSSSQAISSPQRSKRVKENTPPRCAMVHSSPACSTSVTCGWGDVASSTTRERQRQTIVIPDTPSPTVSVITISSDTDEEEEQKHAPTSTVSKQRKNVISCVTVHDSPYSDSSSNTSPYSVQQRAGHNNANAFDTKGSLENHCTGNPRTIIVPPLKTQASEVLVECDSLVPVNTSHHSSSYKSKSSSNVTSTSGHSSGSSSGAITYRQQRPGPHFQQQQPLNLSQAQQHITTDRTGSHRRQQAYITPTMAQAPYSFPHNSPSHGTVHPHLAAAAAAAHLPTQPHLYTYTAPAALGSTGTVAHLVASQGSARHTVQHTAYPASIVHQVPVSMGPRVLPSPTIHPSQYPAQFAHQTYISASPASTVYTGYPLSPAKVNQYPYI
Chain of Protein-tyrosine kinase 6 (Q13882 whole entry): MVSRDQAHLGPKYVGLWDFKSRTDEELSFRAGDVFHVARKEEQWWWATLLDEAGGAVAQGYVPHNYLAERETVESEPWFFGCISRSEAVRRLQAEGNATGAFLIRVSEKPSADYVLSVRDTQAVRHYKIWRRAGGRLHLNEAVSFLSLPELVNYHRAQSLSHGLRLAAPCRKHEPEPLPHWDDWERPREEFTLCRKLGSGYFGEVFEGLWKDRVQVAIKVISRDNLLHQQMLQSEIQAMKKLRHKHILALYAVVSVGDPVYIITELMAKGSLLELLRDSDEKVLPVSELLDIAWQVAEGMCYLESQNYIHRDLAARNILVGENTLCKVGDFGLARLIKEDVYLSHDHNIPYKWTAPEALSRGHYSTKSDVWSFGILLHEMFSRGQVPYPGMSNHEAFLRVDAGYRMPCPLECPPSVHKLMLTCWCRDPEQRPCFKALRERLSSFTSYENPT
Chain of Ribosomal protein S6 kinase beta-1 (P23443 whole entry): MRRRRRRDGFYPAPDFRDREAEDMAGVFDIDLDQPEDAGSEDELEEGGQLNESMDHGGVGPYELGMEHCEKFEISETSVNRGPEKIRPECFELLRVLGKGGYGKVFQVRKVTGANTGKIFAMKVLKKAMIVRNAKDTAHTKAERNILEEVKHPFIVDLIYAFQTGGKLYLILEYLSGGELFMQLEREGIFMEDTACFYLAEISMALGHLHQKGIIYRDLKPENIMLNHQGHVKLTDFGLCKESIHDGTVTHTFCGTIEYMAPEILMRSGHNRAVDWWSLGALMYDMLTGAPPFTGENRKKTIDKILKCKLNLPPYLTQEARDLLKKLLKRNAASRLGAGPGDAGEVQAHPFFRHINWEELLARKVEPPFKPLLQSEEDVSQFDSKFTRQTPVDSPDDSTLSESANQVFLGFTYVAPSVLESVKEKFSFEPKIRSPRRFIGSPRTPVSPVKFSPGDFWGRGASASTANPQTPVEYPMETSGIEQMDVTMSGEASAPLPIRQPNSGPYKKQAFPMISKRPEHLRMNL

Question: With Nc1nc(NCC2CCCO2)nc(Nc2ccc(F)cc2)c1[N+](=O)[O-] (configuration not stated) as the molecule, how does the AC50 [1] read?
Answer: 0.802 µM (active)

Question: And the AC50 [2]?
Answer: 2.42 µM (active)

Question: Which results are given for CCC1C(=O)N(C)c2cnc(Nc3ccc(C(=O)NC4CCN(C)CC4)cc3OC)nc2N1C1CCCC1 (configuration not stated)?
Answer: Ki [3]: 0.631 µM (active); Ki [4]: > 2 µM (inactive); Ki [5]: > 6.31 µM (inactive); Ki [6]: > 3.98 µM (inactive); Ki [7]: > 2 µM (inactive); Ki [8]: > 6.31 µM (inactive); Ki [9]: > 2.51 µM (inactive); Ki [10]: > 2 µM (inactive); Ki [11]: > 0.631 µM (inactive); Ki [12]: > 3.16 µM (inactive); Ki [13]: > 10 µM (inactive); Ki [14]: > 5.01 µM (inactive); Ki [15]: > 6.31 µM (inactive); Ki [16]: > 3.16 µM (inactive); Ki [17]: > 6.31 µM (inactive); Ki [18]: 0.2 µM (active); Ki [19]: 1.58 µM (active)

Question: Which results are given for Cc1cc(C)n2nc(N)c(/N=N/c3ccccc3)c2n1?
Answer: CC50 [20]: > 100 µM (active); CC50 [21]: > 50 µM (active); CC50 [22]: > 100 µM (active); CC50 [23]: 83.7 µM (active); CC50 [24]: > 99.5 µM (active); CC50 [25]: 93 µM (active); CC50 [26]: > 100 µM (active); CC50 [27]: > 50 µM (active)
